Assay results published in patent US8450243B2, “Herbicidal quinoline and 1,8-naphthyridine compounds” (Syngenta Limited, priority 2009, dated 2013).

Key:
Assay type in all cases: in vivo
[1] = system: Echinochloa crus-galli (ECHCG); experiment: Herbicidal glasshouse test, post-emergence; conditions: POST Application, evaluated after 13 days; for damage to plant (100=total damage to plant; 0=no damage to plant): 250 g/ha
Procedure: (§1) Seeds of a variety of test species were sown in standard soil in pots (Alopecurus myosuroides (ALOMY), Setaria faberi (SETFA), Echinochloa crus-galli (ECHCG), Abuthilon theophrasti (ABUTH) and Amaranthus retoflexus (AMARE)). After cultivation for one day (pre-emergence) or after 8 days cultivation (post-emergence) under controlled conditions in a glasshouse (at 24/16° C., day/night; 14 hours light; 65% humidity), the plants were sprayed with an aqueous spray solution derived from the formulation of the technical active ingredient in acetone/water (50:50) solution containing 0.5% Tween 20 (polyoxyethelyene sorbitan monolaurate, CAS RN 9005-64-5). Compounds were applied at 250 g/ha. The test plants were then grown in a glasshouse under controlled conditions in a glasshouse (at 24/16° C., day/night; 14 hours light; 65% humidity) and watered twice daily. After 13 days for pre and post-emergence, the test was evaluated (100=total damage to plant; 0=no damage to plant).

Setaria faberi (SETFA) [2] = experiment: Herbicidal glasshouse test, post-emergence; conditions: POST Application, evaluated after 13 days; for damage to plant (100=total damage to plant; 0=no damage to plant): 250 g/ha
Procedure: as §1

[3] = system: Alopecurus myosuroides (ALOMY); experiment: Herbicidal glasshouse test, post-emergence; conditions: POST Application, evaluated after 13 days; for damage to plant (100=total damage to plant; 0=no damage to plant): 250 g/ha
Procedure: as §1

[4] = system: Abuthilon theophrasti (ABUTH); experiment: Herbicidal glasshouse test, post-emergence; conditions: POST Application, evaluated after 13 days; for damage to plant (100=total damage to plant; 0=no damage to plant): 250 g/ha
Procedure: as §1

[5] = system: Amaranthus retoflexus (AMARE); experiment: Herbicidal glasshouse test, post-emergence; conditions: POST Application, evaluated after 13 days; for damage to plant (100=total damage to plant; 0=no damage to plant): 250 g/ha
Procedure: as §1

[6] = system: Echinochloa crus-galli (ECHCG); experiment: Herbicidal glasshouse test, pre-emergence; conditions: PRE Application, evaluated after 13 days; for damage to plant (100=total damage to plant; 0=no damage to plant): 250 g/ha
Procedure: as §1

Setaria faberi (SETFA) [7] = experiment: Herbicidal glasshouse test, pre-emergence; conditions: PRE Application, evaluated after 13 days; for damage to plant (100=total damage to plant; 0=no damage to plant): 250 g/ha
Procedure: as §1

[8] = system: Alopecurus myosuroides (ALOMY); experiment: Herbicidal glasshouse test, pre-emergence; conditions: PRE Application, evaluated after 13 days; for damage to plant (100=total damage to plant; 0=no damage to plant): 250 g/ha
Procedure: as §1

[9] = system: Abuthilon theophrasti (ABUTH); experiment: Herbicidal glasshouse test, pre-emergence; conditions: PRE Application, evaluated after 13 days; for damage to plant (100=total damage to plant; 0=no damage to plant): 250 g/ha
Procedure: as §1

[10] = system: Amaranthus retoflexus (AMARE); experiment: Herbicidal glasshouse test, pre-emergence; conditions: PRE Application, evaluated after 13 days; for damage to plant (100=total damage to plant; 0=no damage to plant): 250 g/ha
Procedure: as §1

| SMILES | damage to plant (100=total damage to plant; 0=no damage to plant) [1] | damage to plant (100=total damage to plant; 0=no damage to plant) (Setaria faberi (SETFA) [2]) | damage to plant (100=total damage to plant; 0=no damage to plant) [3] | damage to plant (100=total damage to plant; 0=no damage to plant) [4] | damage to plant (100=total damage to plant; 0=no damage to plant) [5] | damage to plant (100=total damage to plant; 0=no damage to plant) [6] | damage to plant (100=total damage to plant; 0=no damage to plant) (Setaria faberi (SETFA) [7]) | damage to plant (100=total damage to plant; 0=no damage to plant) [8] | damage to plant (100=total damage to plant; 0=no damage to plant) [9] | damage to plant (100=total damage to plant; 0=no damage to plant) [10] | pest or weed control at 250 g/ha ([1]; Echinochloa crus-galli, post-emergence, 312 h, read-out: damage to plant (100=total damage to plant; 0=no damage to plant)) | pest or weed control at 250 g/ha (Setaria faberi (SETFA) [2]; Setaria faberi, post-emergence, 312 h, read-out: damage to plant (100=total damage to plant; 0=no damage to plant)) | pest or weed control at 250 g/ha ([3]; Alopecurus myosuroides, post-emergence, 312 h, read-out: damage to plant (100=total damage to plant; 0=no damage to plant)) | pest or weed control at 250 g/ha ([4]; Abutilon theophrasti, post-emergence, 312 h, read-out: damage to plant (100=total damage to plant; 0=no damage to plant)) | pest or weed control at 250 g/ha ([5]; Amaranthus retroflexus, post-emergence, 312 h, read-out: damage to plant (100=total damage to plant; 0=no damage to plant)) | pest or weed control at 250 g/ha ([6]; Echinochloa crus-galli, pre-emergence, 312 h, read-out: damage to plant (100=total damage to plant; 0=no damage to plant)) | pest or weed control at 250 g/ha (Setaria faberi (SETFA) [7]; Setaria faberi, pre-emergence, 312 h, read-out: damage to plant (100=total damage to plant; 0=no damage to plant)) | pest or weed control at 250 g/ha ([8]; Alopecurus myosuroides, pre-emergence, 312 h, read-out: damage to plant (100=total damage to plant; 0=no damage to plant)) | pest or weed control at 250 g/ha ([9]; Abutilon theophrasti, pre-emergence, 312 h, read-out: damage to plant (100=total damage to plant; 0=no damage to plant)) | pest or weed control at 250 g/ha ([10]; Amaranthus retroflexus, pre-emergence, 312 h, read-out: damage to plant (100=total damage to plant; 0=no damage to plant)) |
| --- | --- | --- | --- | --- | --- | --- | --- | --- | --- | --- | --- | --- | --- | --- | --- | --- | --- | --- | --- | --- |
| COc1ccc(Cn2c(=O)c(C(=O)C3C(=O)CCCC3=O)cc3cc(F)cnc32)cc1 [Compound 4.17] | 80 | 60 | 0 | 70 | 50 | 70 | 20 | 0 | 70 | 90 | – | – | – | – | – | – | – | – | – | – |
| COc1ccc(-n2c(=O)c(C(=O)C3C(=O)CCCC3=O)cc3cc(F)cnc32)cc1 [Compound 4.18] | 80 | 80 | 80 | 80 | 80 | 100 | 70 | 70 | 90 | 90 | – | – | – | – | – | – | – | – | – | – |
| COc1ccc(-n2c(=O)c(C(=O)C3C(=O)CCCC3=O)cc3cc(F)cnc32)cn1 [Compound 4.20] | 80 | 80 | 80 | 80 | 60 | 100 | 70 | 90 | 100 | 100 | – | – | – | – | – | – | – | – | – | – |
| Cc1ccccc1-n1c(=O)c(C(=O)C2C(=O)CCCC2=O)cc2cc(F)cnc21 [Compound 4.22] | 70 | 80 | 80 | 80 | 70 | 100 | 100 | 90 | 90 | 100 | – | – | – | – | – | – | – | – | – | – |
| O=C1CCCC(=O)C1C(=O)c1cc2cc(F)cnc2n(-c2cc(Cl)cc(Cl)c2)c1=O [Compound 4.23] | 80 | 70 | 70 | 80 | 80 | 100 | 90 | 90 | 80 | 70 | – | – | – | – | – | – | – | – | – | – |
| Cc1ccc(-n2c(=O)c(C(=O)C3C(=O)CCCC3=O)cc3cc(F)cnc32)cc1 [Compound 4.24] | 80 | 80 | 70 | 90 | 80 | 100 | 90 | 80 | 100 | 100 | – | – | – | – | – | – | – | – | – | – |
| O=C1CCCC(=O)C1C(=O)c1cc2cc(F)cnc2n(-c2cccc(Cl)c2)c1=O [Compound 4.25] | 80 | 80 | 80 | 80 | 70 | 100 | 100 | 90 | 90 | 50 | – | – | – | – | – | – | – | – | – | – |
| O=C1CCCC(=O)C1C(=O)c1cc2cc(F)cnc2n(-c2ccccc2Cl)c1=O [Compound 4.28] | 80 | 80 | 70 | 80 | 80 | 100 | 100 | 90 | 100 | 50 | – | – | – | – | – | – | – | – | – | – |
| COc1ccccc1-n1c(=O)c(C(=O)C2C(=O)CCCC2=O)cc2cc(F)cnc21 [Compound 4.33] | 90 | 90 | 100 | 80 | 80 | 100 | 100 | 100 | 100 | 100 | – | – | – | – | – | – | – | – | – | – |
| O=C1CCCC(=O)C1C(=O)c1cc2cc(F)cnc2n(-c2ccccc2C(F)(F)F)c1=O [Compound 4.34] | 90 | 80 | 90 | 80 | 80 | 100 | 100 | 100 | 100 | 100 | – | – | – | – | – | – | – | – | – | – |
| O=C1CCCC(=O)C1C(=O)c1cc2cc(F)cnc2n(-c2ccc(F)cc2F)c1=O [Compound 4.35] | 90 | 80 | 90 | 80 | 90 | 100 | 100 | 90 | 100 | 100 | – | – | – | – | – | – | – | – | – | – |
| O=C1CCCC(=O)C1C(=O)c1cc2cc(F)cnc2n(-c2ccccc2[N+](=O)[O-])c1=O [Compound 4.36] | – | – | – | – | – | – | – | – | – | – | 90% | 80% | 90% | 80% | 80% | 100% | 100% | 90% | 100% | 100% |
